Experimental data from PubChem BioAssay AID504680 (Sanford-Burnham Center for Chemical Genomics, 2011).
Calls of active or inactive are those of the source.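 Rule for the calls: active = IC50 below 100 µM in the TR-FRET assay, unless also active in the caspase-3 counter assay; inactive = the rest, including compounds also active in caspase-3.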

Biological target: Caspase-3 (Homo sapiens) (UniProt P42574)
Assay: inhibition of recombinant caspase-3 activity – biochemical, luminescence, Caspase-Glo 3/7, counter-screen for UBC13 polyubiquitin inhibitor project, SAR follow-up (AID 504680)
Details: recombinant caspase-3, Caspase-Glo luminescence, 60 min

Caspase-3 (Homo sapiens), sequence (P42574 whole entry, looked up): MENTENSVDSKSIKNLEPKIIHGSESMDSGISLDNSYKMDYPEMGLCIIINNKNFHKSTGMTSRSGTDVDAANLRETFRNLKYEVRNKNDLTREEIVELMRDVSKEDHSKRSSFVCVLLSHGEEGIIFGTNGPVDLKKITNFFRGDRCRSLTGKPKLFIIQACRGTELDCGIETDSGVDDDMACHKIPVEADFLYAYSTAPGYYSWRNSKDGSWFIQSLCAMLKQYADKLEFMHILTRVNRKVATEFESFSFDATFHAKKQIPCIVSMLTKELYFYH

| SMILES | IC50 |
| --- | --- |
| Cc1ccc2c(c1)C1CN(C)CCC1N2C(=O)CCCN1C(=O)c2cccc3cccc(c23)C1=O (stereo unspecified) | > 100 µM (inactive) |
| O=C1c2cccc3cccc(c23)C(=O)N1CC1CCN(CC(O)COc2ccc3ccccc3c2)CC1 (stereo unspecified) | > 100 µM (inactive) |
| COc1ccc(C)c2sc(N(CCCN(C)C)C(=O)c3ccc(S(=O)(=O)N(C)C)cc3)nc12 | > 100 µM (inactive) |
| COc1cc(/C=C/c2cc[n+](C)cc2)ccc1OCC(=O)Nc1ccc(Cl)c(Cl)c1 | > 100 µM (inactive) |
| O=C(CCCCCN1C(=O)c2ccccc2C1=O)Nc1ccc(S(=O)(=O)Nc2ncccn2)cc1 | > 100 µM (inactive) |
| Cc1nc2ccccc2c(=O)n1NC(=O)c1ccc(OC(F)F)cc1 | > 100 µM (inactive) |
| CCc1ccc2nc(N(CCCN(C)C)C(=O)c3ccc(S(=O)(=O)N4CCc5ccccc5C4)cc3)sc2c1 | > 100 µM (inactive) |
| COc1ccc(COCC(O)CN2CCC(CN3C(=O)c4cccc5cccc(c45)C3=O)CC2)cc1OC (stereo unspecified) | > 100 µM (inactive) |
| C=CCc1ccccc1OCC(O)CN1CCN(CCN2C(=O)c3cccc4cccc(c34)C2=O)CC1 (stereo unspecified) | > 100 µM (inactive) |
| CN(C)CCCN(C(=O)c1ccc(S(=O)(=O)N2CCc3ccccc3C2)cc1)c1nc2ccc(F)cc2s1 | > 100 µM (inactive) |
| Cc1ccc2nc(N(CCCN(C)C)C(=O)c3ccc(S(=O)(=O)N4CCc5ccccc5C4)cc3)sc2c1 | > 100 µM (inactive) |
| COc1cccc(OCC(O)CN2CCN(CCN3C(=O)c4cccc5cccc(c45)C3=O)CC2)c1 (stereo unspecified) | > 100 µM (inactive) |
| CCOc1cccc2sc(N(CCCN(C)C)C(=O)c3ccc(S(=O)(=O)N4CCc5ccccc5C4)cc3)nc12 | > 100 µM (inactive) |
| CN(C)CCCN(C(=O)c1ccc2c(c1)CCCC2)c1nc2ccc(Cl)cc2s1 | > 100 µM (inactive) |
| CN(C)CCCN(C(=O)c1ccc(S(=O)(=O)N2CCCCCC2)cc1)c1nc2ccc(Br)cc2s1 | > 100 µM (inactive) |
| O=C(c1ccco1)N1CCN(C(=O)C2CCN(c3ncnc4c3nc3n4CCCCC3)CC2)CC1 | > 100 µM (inactive) |
| O=C(CCCCCN1C(=O)c2cccc3cccc(c23)C1=O)NCCO | > 100 µM (inactive) |
| O=C1c2cccc3cccc(c23)N1Cc1ccc(F)cc1 | > 100 µM (inactive) |
| N#Cc1ccccc1Cn1c(=O)n(CCCC(=O)NC2CCN(Cc3ccccc3)CC2)c(=O)c2ccccc21 | > 100 µM (inactive) |
| CCc1ccc(OCC(O)CN2CCC(CN3C(=O)c4cccc5cccc(c45)C3=O)CC2)cc1 (stereo unspecified) | > 100 µM (inactive) |
| O=C(CCCCCN1C(=O)c2ccccc2C1=O)Nc1ccc(S(=O)(=O)N2CCCCC2)cc1 | > 100 µM (inactive) |
| COc1ccc(CCNC(=O)CCCCCN2C(=O)c3ccccc3C2=O)cc1OC | > 100 µM (inactive) |
| CC1(C)Cc2c(sc(NC(=O)COc3ccc(Cl)cc3Cl)c2C(N)=O)C(C)(C)N1 | > 100 µM (inactive) |

| SMILES | IC50 |
| --- | --- |
| COc1cccc(NC(=O)CCCCCN2C(=O)c3cccc([N+](=O)[O-])c3C2=O)c1 | > 100 µM (inactive) |
| Cc1cc(NS(=O)(=O)c2ccc(NC(=O)CCCCCN3C(=O)c4ccccc4C3=O)cc2)nc(C)n1 | > 100 µM (inactive) |
| O=C(NCC1CCN(Cc2ccc(F)cc2)CC1)C1CCCN(c2ncnc3c2nc2n3CCCCC2)C1 (stereo unspecified) | > 100 µM (inactive) |
| O=C(C1CCN(c2ncnc3c2nc2n3CCCCC2)CC1)N1CCN(c2ccccc2)CC1 | > 100 µM (inactive) |
| COc1ccc2sc(N(CCCN(C)C)C(=O)c3ccc(S(=O)(=O)N4CCc5ccccc5C4)cc3)nc2c1 | > 100 µM (inactive) |
| Cc1cc(C)c2sc(N(CCCN(C)C)C(=O)c3ccc(S(=O)(=O)N(C)C4CCCCC4)cc3)nc2c1 | > 100 µM (inactive) |
| COc1cccc2sc(N(CCCN(C)C)C(=O)c3ccc(S(=O)(=O)N4CCc5ccccc5C4)cc3)nc12 | > 100 µM (inactive) |
| CCN(Cc1ccccc1)S(=O)(=O)c1ccc(C(=O)N(CCCN(C)C)c2nc3cc(C)cc(C)c3s2)cc1 | > 100 µM (inactive) |
| CN(C)CCCN(C(=O)c1ccc(C(=O)c2ccccc2)cc1)c1nc2cc3c(cc2s1)OCCO3 | > 100 µM (inactive) |
| O=C1c2cccc3cccc(c23)C(=O)N1CCN1CCN(CC(O)COc2ccc3c(c2)OCO3)CC1 (stereo unspecified) | > 100 µM (inactive) |
| Cc1ccc(C)c(OCC(O)CN2CCN(CCN3C(=O)c4cccc5cccc(c45)C3=O)CC2)c1 (stereo unspecified) | > 100 µM (inactive) |
| O=C(CCCn1c(=O)c2ccccc2n(Cc2ccc(Cl)cc2)c1=O)NC1CCN(Cc2ccccc2)CC1 | > 100 µM (inactive) |
| CCOc1ccc(NC(=O)Cn2c(=O)n(CCCC(=O)NC3CCN(Cc4ccccc4)CC3)c(=O)c3ccccc32)cc1 | > 100 µM (inactive) |
| COc1ccc2sc(N(CCCN(C)C)C(=O)c3ccc(S(=O)(=O)N(C)Cc4ccccc4)cc3)nc2c1 | > 100 µM (inactive) |
| Cc1ccccc1NC(=S)NC(=O)CCCCCN1C(=O)c2ccccc2C1=O | > 100 µM (inactive) |
| CN(C)CCCn1c(SCC(=O)Nc2nc(-c3cccc(Br)c3)cs2)nc2ccccc2c1=O | > 100 µM (inactive) |
| COc1ccccc1NC(=S)NC(=O)CCCCCN1C(=O)c2ccccc2C1=O | > 100 µM (inactive) |
| O=C(NCCCN1CCCCC1)C1CCN(c2ncnc3c2nc2n3CCCCC2)CC1 | > 100 µM (inactive) |
| Cc1ccc(-c2oc3ncnc(N)c3c2-c2ccc(C)cc2)cc1 | > 100 µM (inactive) |
| COC(=O)C1=C(NC(=O)CCCCCN2C(=O)c3ccccc3C2=O)SC2CCCC12 (stereo unspecified) | > 100 µM (inactive) |
| COc1ccc(C(=O)Nn2c(C)nc3ccccc3c2=O)cc1 | > 100 µM (inactive) |
| CC(=O)c1ccccc1OCC(O)CN1CCN(CCN2C(=O)c3cccc4cccc(c34)C2=O)CC1 (stereo unspecified) | > 100 µM (inactive) |
| O=C(CCCn1c(=O)c2ccccc2n(Cc2cccc([N+](=O)[O-])c2)c1=O)NC1CCN(Cc2ccccc2)CC1 | > 100 µM (inactive) |
